TGI and GI50 data for ten molecules are collected here from PubChem BioAssay (NCI).

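Five concentrations, 48 hours, 96-well plates. Here, GI50 denotes the concentration required for 50% inhibition of growth. The concentration for full growth arrest is given as TGI.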 A value given as a limit tells only on which side of the number the result lay.

Experiment in all cases: NCI tumour cell line growth inhibition, 48 h
The test system of assay [1] is SW-620 colon.
For assay [2], the system named is HS 578T breast.
Assay [3] concerns 786-0 renal.
In assay [4] the test system is SN12C renal.
Assay [5] concerns HCC-2998 colon.
Assay [6] has as its system MDA-N.
Assay [7] deals with A498 renal.
For assay [8], the system named is OVCAR-3 ovarian.
Assay [9] relates to UACC-257 melanoma.
Assay [10] relates to RXF 393 renal.
The subject of assay [11] is U251 CNS.
Assay [12] deals with TK-10 renal.
Assay [13] relates to SK-MEL-28 melanoma.
Assay [14] relates to COLO 205 colon.
Assay [15] deals with HOP-62 NSCLC.
Assay [16] concerns MALME-3M melanoma.
The test system of assay [17] is SR leukemia.

For `COc1cc(/C=C/C(=O)N[C@@H]2C(=O)N3[C@@H]2SC(C)(C)[C@@H]3C(=O)O)cc(OC)c1OC`, the TGI in assay [1], in assay [2], in assay [3], in assay [4], in assay [5] and in assay [6] was above 100 µM in each case. The TGI in [7], in [8], in assay [9], in [10], in assay [11] and in assay [12] was above 100 µM in each case. For the same molecule, the TGI in assay [13] and in [14] was above 100 µM throughout.

In the case of `Cn1c2ccccc2n2c(=O)c3cccnc3c(C#N)c12`, the TGI in assay [15], in assay [1], in assay [3], in [4], in assay [6] and in assay [7] was above 100 µM each time. Further, the TGI in assay [16], in assay [8], in assay [9], in [10], in assay [11] and in assay [12] was above 100 µM each time. The TGI in assay [13] and in [14] was above 100 µM throughout.

Turning to `C=Cc1cc2c(cc1O)CC[C@@H]1[C@@H]2CC[C@]2(C)[C@@H](O)CC[C@@H]12`, the TGI is 8.4 µM in assay [17]; 19.8 µM in assay [15]; 14.2 µM in assay [1]; 14.3 µM in [3]; 19.5 µM in assay [4]; 25.4 µM in [5]. For the same molecule, the TGI in assay [6] stood at 7.76 µM; in assay [7], 39.1 µM; in assay [16] it was 10.4 µM; in [8], 8.74 µM; in assay [9] it was 8.87 µM; in [10] it was 8.92 µM. Also, the TGI in [11] came out at 15.1 µM; in assay [12], 38.3 µM; in assay [13] it was 16.7 µM; in assay [14], 30.1 µM. The GI50 was 5.04 µM in assay [15], 5.12 µM in assay [4] and 2.57 µM in assay [8].

Take `CC(C)CC1[C@@H](OCc2ccccc2)COS(=O)(=O)N1Cc1ccccc1` (stereo not given in full): the TGI in assay [15] was above 100 µM; in [1], above 100 µM; in assay [2], 70 µM; in assay [3], above 100 µM; in assay [4], above 100 µM; in [7] it was above 100 µM. The TGI in assay [16], in assay [8], in assay [9], in assay [11], in assay [12] and in assay [13] was above 100 µM each time. Besides, the TGI in assay [14] is above 100 µM.

`CCOC(=O)COc1c(OC)cc(C2C3=C(COC3=O)Oc3cc4c(cc32)OCO4)cc1OC` (stereo not given): the TGI in assay [17] was 27.1 µM; in assay [15], above 100 µM; in [1], above 65.9 µM; in assay [2], above 57.1 µM; in assay [3] it was 15.5 µM; in assay [4], above 73 µM. Moreover, the TGI in assay [5] was 30.7 µM; in [16] it was above 100 µM; in [8] it was 78.4 µM; in assay [9], above 100 µM; in assay [11] it was 81.9 µM; in [12], 20.9 µM. Besides, the TGI in assay [14] is 4.88 µM.

For `CSc1nc(O)c(/C=C2\C=Nc3ccccc32)[nH]1`, the TGI in assay [17], in assay [15], in assay [1], in [2], in assay [3] and in assay [4] was above 100 µM throughout. Also, the TGI is 90.6 µM in assay [5]; above 100 µM in assay [7]; above 100 µM in assay [16]; above 100 µM in assay [8]; above 100 µM in assay [9]; above 100 µM in [10]. Further, the TGI in assay [11], in assay [12], in assay [13] and in assay [14] was above 100 µM each time.

Take `Nc1nc(N)c2nc(-c3ccco3)cnc2n1`: the TGI in [17], in [15], in [3], in assay [4], in [5] and in assay [7] was above 100 µM in each case. Also, the TGI in [16], in [8], in assay [9], in assay [10], in assay [11] and in assay [12] was above 100 µM throughout. For the same molecule, the TGI in assay [13] and in [14] was above 100 µM each time.

With `CC(C)(C)OC(=O)Nc1cc(-c2ccccc2)co1`, the TGI in assay [15], in assay [1], in assay [3], in assay [4], in assay [5] and in [6] was above 100 µM throughout. The TGI in assay [7], in [8], in assay [9], in [11], in [12] and in assay [13] was above 100 µM in each case. The same molecule displayed a TGI in assay [14] above 100 µM.

Consider `COc1ccc2c(c1)CCCN1CCc3cc(OC)c(OC)cc3C21` (stereo not given), for which the TGI in assay [17], in [15], in assay [1], in assay [3], in assay [4] and in assay [5] was above 100 µM each time. The TGI in assay [6], in [16], in assay [8], in assay [9], in assay [11] and in assay [12] was above 100 µM throughout. Moreover, the TGI in assay [13] and in [14] was above 100 µM in each case.

Take `COc1ccc(Nc2nc(N)c(C(=O)c3ccccc3)s2)cc1`: the TGI in assay [17] is 14.5 µM; in [15], above 100 µM; in assay [1] it was above 100 µM; in assay [2], 3.18 µM; in assay [3] it was 31.6 µM; in [4], 66.3 µM. Also, the TGI was above 72.5 µM in assay [7]; above 100 µM in assay [16]; above 100 µM in assay [8]; above 100 µM in [9]; 24.2 µM in assay [10]; above 100 µM in assay [11]. Also, the TGI in assay [12] was above 100 µM; in assay [13], above 100 µM; in assay [14], 0.333 µM.
